Measured values: patent publication US6649628B1, “N-[2-hydroxy-3-(1-piperidinyl)propoxy]pyridine-1-oxide-3-carboximidoyl chloride and its use in the treatment of insulin resistance” (Biorex Kutato es Fejleszto RT, priority 1999, dated 2003)
Like-named read-outs stand apart in the source and are kept apart here.

Legend:
[1] = tested on: high fat (HF) diet insulin resistant male Wistar rats; assay: Experiment 8: in vivo insulin-dependent glucose uptake (euglycaemic glucose clamp) in dietary induced insulin resistance
Method: Male Wistar rats (Charles River Laboratories Inc.) with an initial body weight of 300-350 g were used in the experiments.
Insulin resistance was induced by dietary manipulation: animals were given a high fat (HF) diet for 3 weeks. In the HF diet the proportion of saturated fats were dominant and gave 70% of total daily caloric intake.
Briefly: the fasting blood glucose concentration in different animal groups must be identical. Experiments were carried out in conscious, freely moving, chronicly canulated rats: first an insulin infusion (6.4 mU/kg/min) was started, followed by a parallel-run continuous glucose infusion to maintain blood glucose concentrations in the euglycaemic range. After stabilisation the quantity of infused glucose was measured for a 90 min. period (glucose infusion rate=GIR, mg/kg/min) which is the quantitative parameter of insulin sensitivity.

STZ-diabetic Wistar rats [2] = assay: Experiment 6: Compound-A and enantiomers, nerve conduction velocity after 1 month treatment; conditions: for effect on motor (MNCV) and sensory (SNCV) nerve conduction velocity deficits: Compound-A 10 mg/kg, enantiomers 5 mg/kg daily
Method: In the experiments, male Wistar rats were used (Charles River Laboratories Inc.). At the start of the experiment, their weights were 340-370 g. Diabetes was induced by the intravenous administration of a single 45 mg/kg dose of streptozotocine (STZ, Sigma, St. Louis, Mo.) dissolved in physiological saline solution. The development of diabetes was checked after 1 day by a blood glucose test, accepting a value over 15 mmol/l.
The test and reference substances were administered p.os to the animals once a day.
For the determination of nerve conduction velocity (NCV), the method of Stanley, modified by De Konig and Gispen was used. The animals were anesthetized by the simultaneous administration of Hyponorm (1 mg/kg ip., Janssen, Tilburg, Denmark), fluanisone (10 mg/ml), and phentanyl citrate (0.2 mg/ml). Afterwards, the left ischiadicus and tibial nerves were stimulated at standard points. Supramaximal stimulus (square impulse, 0.03 ms) was used with a platinum needle electrode, through a Nihon-Kohden (model SEN-1104, Japan) stimulator. The electromyogram (EMG) transferred from the sole muscles and intensified by a myograph (Elema-Schonander, Stockholm, Sweden) was analyzed further by the Matlab for Windows (Mathwork Inc, UK) program. The extent of NCV damage caused by diabetes was expressed in m/s. The effectiveness of the treatment was compared to this in terms of percentage (%). The statistical calculations were done by unpaired t-test or single-criterion ANOVA test (along with the Newman-Keuls post hoc test).

STZ-diabetic rats = conditions: 2 month; for effect on lenticular and retinal pathologic histological alterations / effect on retinal histological alterations only: Compound-A 10 mg/kg, enantiomers 5 mg/kg daily
Method: After anesthesia (Calypsovet, 125 mg/kg. Ip., Richter Rt., Hungary), the eyes were enucleated and fixed in 4% formaldehyde dissolved in a phosphate buffer (pH:7.4).
Afterwards, they were embedded in paraffin (Medim DDM P800, embedding center: Lignifer L-120-92-014, stainer: Shandon Eliott, Microtome: is Leica SM 2000 R, Microscope: Jenaval Karl Zeiss Jena). Several 6 micron sections of the eyes were prepared, and hematoxilyn/eosine (Fluka) and PAS (periodic acid-Schiff, Fluka) staining were used. The light-microscopic evaluation was performed at a magnification of 40× and 100×. Photographs and slide positives were prepared of representative samples.
The histological evaluation was performed on coded samples, the group division was unknown for the examiner. Pathological deviations of the retina were graded on a scale of 0-20, while those of the lens on a scale of 0-3.
The statistical calculations were done with the Statistica 4.5 (SatSoft, USA) program. The given value for negative cases was 0.1. A Box and Whisker plot graph was also prepared.
For each group in the experiment, the mean±SE (Standard Error) values were calculated, and the comparison was done with the help of a non-parametric Mann-Whitney U-test (Graphpad Instat, San Diego, Calif.).

STZ-diabetic Wistar rats [3] = assay: Experiment 3: diabetic autonomous neuropathy after 1 month of treatment; format: in vivo, rat; conditions: daily 20 mg/kg single dose
Method: The experiments were performed under anesthesia achieved by administering 60 mg/kg ip. pentobarbital sodium (Nembutal, Sanofi, Phylaxia). After this, an intratracheal tube or polyethylene canula was inserted into the fermoral artery and vein. The arterial catheter was connected to a pressure transducer for the simultaneous measurement of systolic and diastolic blood pressure (online automatic measuring and forwarding system, with a Haemosys computer program). After 20 minutes of equillibration period, the following substances were administered intravenously: Noradrenalin, 5 μg/kg iv.—Isoproterenol 0.4 μg/kg iv.—N.vagus stimulation (2 V, duration: 500 μsec, delay: 1 msec). The effects of the substances were monitored for 10 minutes.

[4] = tested on: obese, insulin resistant, hyperinsulinaemic Zucker fa/fa rats; assay: Experiment 1: carbohydrate metabolism (fasting glucose/insulin, ip glucose tolerance test) after 2-month treatment; format: in vivo, rat
Method: In the experiments so-called Zucker fa/fa rats (Charles River Laboratories Inc.) were used. In […] animals, obesity, insulin resistance, high blood insulin level, impaired glucose tolerance and hypertriglyceridaemia result from hypothalamic leptin receptor mutation. Due to the above characteristics, this is an accepted model of early type 2 diabetes.
The animals were placed in individual metabolic cages for 24 hours at the beginning of the study, and after 1 or 2 months of treatment for 24 hours of urine collection.
The animals were given either the test substances or physiological saline solution by gavage for control once a day between weeks 14-22.
Biochemical parameters of the blood and the urine were measured by a Kodak Ectachem 700 automatic analyzer. The total protein level of the urine was determined spectrophotometrically with the use of Bradford staining (Hitachi U-3200) at 595 nm. The insulin concentration of the serum was determined by the RIA method, using rat anti-insulin antibodies.
Systolic, diastolic blood pressure and heart rate were measured weekly on the tails of the rats (so-called tail cuff method) by a Letica 200 automatic analyzer. After two months of treatment, the level of glucose tolerance was determined by the intraperitoneal glucose tolerance test (2 g/kg ip.).

STZ-diabetic Wistar rats [5] = tested on: STZ-diabetic Wistar rats
Description: The experiments were accomplished on Wistar rats with a body weight of 320-350 g. Diabetes was induced and checked as described in Experiment 2. In the test animals having been diabetic for 3 weeks the left nervus ischidiacus was injured by freezing and the right side one was used as non-injured control. The regeneration was observed by monitoring the signals of the flexor reflex provoked by irritation of the sole that is areas under curve (AUC) of the electromyogram transferred from the forward tibial muscle. For the stimulation and detection the system described in Experiment 2 was used. Single daily doses of 10 mg/kg of Compound-A and 5 mg/kg of A(+) enantiomer were administred for 5 weeks after the injury by freezing.

STZ-diabetic Wistar rats [6] = assay: Experiment 5: urinary protein loss caused by diabetic nephropathy after 1-month treatment; format: in vivo, rat
Method: For the 24-hour period of urine collection, the animals were placed in individual metabolic cages. During this period they were given water ad libitum but no food. The latter measure was necessary to prevent possible contamination by the protein content of the food. Urine was collected in calibrated glass containers, in which Thymol crystal (Reanal 3135-1-08-38) was placed to prevent bacterial contamination.
Before measurement, the urine samples were centrifuged (2500 rpm) and filtered through a paper filter (Whatmann 1). If necessary, they were stored at −20° C. until measurement.
The total protein content of the urine was determined by the Bradford staining method (Sigma B-6916, St. Louis, Mo.), and color intensity was detected by spectrophotometry (Hitachi-U-3200).

STZ-diabetic Wistar rats [7] = assay: Experiment 2: peripheral neuropathy, nerve conduction velocity after 1-month treatment; format: in vivo, rat; conditions: for MNCV / MNCV improvement / SNCV / SNCV improvement: 1 month
Description: (Graphpad Instat, San Diego, Calif.).

STZ-diabetic Wistar rats [8] = assay: Experiment 4: histological alterations of early diabetic retinopathy after 1 month of treatment; format: in vivo, rat
Method: Photographs and slide positives were prepared of representative samples.
The given value for negative cases was 0.1. A Box and Whisker plot graph was also prepared.

[9] = 20 mg/kg p.os daily, 2-month treatment
[10] = intraperitoneal glucose tolerance test
[11] = ip glucose tolerance test 2 g/kg, AUC 0-60 minutes, 20 mg/kg p.os daily, 2-month treatment

O=C(O)/C=C\C(=O)O.[O-][n+]1cccc(C(Cl)=NOC[C@@H](O)CN2CCCCC2)c1 [A(−), (−)-/S/-N-[2-hydroxy-3-(1-piperidinyl)-propoxy]-pyridine-1-oxide-3-carboximidoyl chloride (Z)-2-butenedioate (1:1)]
effect on fasting blood glucose levels ([1]; 20 mg/kg daily, 3 weeks): did not affect
in vivo insulin mediated glucose uptake (glucose infusion rate, GIR) ([1]; 20 mg/kg/day for 3 weeks, euglycaemic glucose clamp, insulin infusion 6.4 mU/kg/min): 19.7 ± 1.38 mg/kg/min
MNCV (STZ-diabetic Wistar rats [2]; 5 mg/kg daily, 1 month): 53.1 ± 0.7 m/s
MNCV improvement (STZ-diabetic Wistar rats [2]; 5 mg/kg daily, 1 month): 39.4%
SNCV (STZ-diabetic Wistar rats [2]; 5 mg/kg daily, 1 month): 54.1 ± 0.9 m/s
SNCV improvement (STZ-diabetic Wistar rats [2]; 5 mg/kg daily, 1 month): 34.9%
effect on motor (MNCV) and sensory (SNCV) nerve conduction velocity deficits (STZ-diabetic Wistar rats [2]): did not have significant improving effect
Scores lenticular + retinal improvement % (STZ-diabetic rats; 5 mg/kg daily): 10.3%
Scores lenticular + retinal mean ± SE (STZ-diabetic rats; 5 mg/kg daily): 6.02 ± 1.09
Scores retinal improvement % (STZ-diabetic rats; 5 mg/kg daily): 21.7%
Scores retinal mean ± SE (STZ-diabetic rats; 5 mg/kg daily): 3.53 ± 1.07
effect on lenticular and retinal pathologic histological alterations (STZ-diabetic rats): not effective
effect on retinal histological alterations only (STZ-diabetic rats): not significant

O=C(O)/C=C\C(=O)O.[O-][n+]1cccc(C(Cl)=NOCC(O)CN2CCCCC2)c1 (stereo not drawn) [Compound A, N-[2-hydroxy-3-(1-piperidinyl)-propoxy]-pyridine-1-oxide-3-carboximidoyl chloride (Z)-2-butenedioate (1:1)]
effect on pathological deviations resulting from autonomous neuropathy (STZ-diabetic Wistar rats [3]): significantly reduced
Heart left ventricular hypertrophy (deviation due to diabetes) (STZ-diabetic Wistar rats [3]; 1 month): ↑ (corrects)
Increased negative chronotropic effect on vagus stimulation (STZ-diabetic Wistar rats [3]; 1 month): ↑ (corrects)
Reduced hypotension on vagus stimulation (STZ-diabetic Wistar rats [3]; 1 month): ↑ (corrects)
Reduced IS induced systemic arterial hypotension (STZ-diabetic Wistar rats [3]; 1 month, isoproterenol 0.4 μg/kg iv.): — (ineffective)
effect on fasting blood glucose ([4]; 20 mg/kg p.os daily): significantly reduced
effect on fasting insulin concentration ([4]; 20 mg/kg p.os daily): significantly reduced
reduction of fasting insulin concentration ([4]; 20 mg/kg p.os daily): approx. 50%
Fasting Blood Glucose (mean ± SE) [4, 9]: 8.267 ± 0.436 mmol/L
Fasting Insulin (mean ± SE) [4, 9]: 11.176 ± 1.955 ng/mL
effect on AUC of insulin [4, 10]: reduced it significantly, to the same level as the Lean control
effect on area under the blood glucose curve (AUC) [4, 10]: neither bimoclomol, nor Compound A effected
Blood Glucose (AUC) (mean ± SE) [4, 11]: 1418.40 ± 194.57
Insulin (AUC) (mean ± SE) [4, 11]: 790.35 ± 166.08
effect on peripheral insulin resistance ([4]; summary of Experiment 1): significantly reduces
neuroregeneration of the non-freezed nerves (STZ-diabetic Wistar rats [5]; 10 mg/kg daily for 5 weeks): 44%
extent of neuroregeneration of the nerve injured by freezing (STZ-diabetic Wistar rats [5]; 10 mg/kg daily for 5 weeks after injury, 5. week, untreated 63%): 73%
24-hour Urinary Protein Loss Mean ± SE (STZ-diabetic Wistar rats [6]; 10 mg/kg daily, 1 month, series 2): 12.06 ± 1.70 mg/24 h
effect on STZ-diabetes-induced urinary protein loss (STZ-diabetic Wistar rats [6]; Bimoclomol 20 mg/kg, Compound-A 10 mg/kg, (+) enantiomer 5 mg/kg daily): non-significantly reduced
MNCV (STZ-diabetic Wistar rats [2]; 10 mg/kg daily, 1 month): 59.3 ± 0.3 m/s
MNCV improvement (STZ-diabetic Wistar rats [2]; 10 mg/kg daily, 1 month): 78.9%
SNCV improvement (STZ-diabetic Wistar rats [2]; 10 mg/kg daily, 1 month): 79.2%
effect on motor (MNCV) and sensory (SNCV) nerve conduction velocity deficits (STZ-diabetic Wistar rats [2]): significantly improved
MNCV (STZ-diabetic Wistar rats [7]; 5 mg/kg p.os once a day): 57.4 ± 0.3 m/s
MNCV improvement (STZ-diabetic Wistar rats [7]; 5 mg/kg p.os once a day): 79.5%
SNCV (STZ-diabetic Wistar rats [7]; 5 mg/kg p.os once a day): 58.4 ± 0.3 m/s
SNCV improvement (STZ-diabetic Wistar rats [7]; 5 mg/kg p.os once a day): 77.6%
MNCV (STZ-diabetic Wistar rats [7]; 10 mg/kg p.os once a day): 59.2 ± 0.3 m/s
MNCV improvement (STZ-diabetic Wistar rats [7]; 10 mg/kg p.os once a day): 90.4%
SNCV (STZ-diabetic Wistar rats [7]; 10 mg/kg p.os once a day): 60.4 ± 0.4 m/s
SNCV improvement (STZ-diabetic Wistar rats [7]; 10 mg/kg p.os once a day): 89.0%
MNCV (STZ-diabetic Wistar rats [7]; 20 mg/kg p.os once a day): 59.1 ± 0.3 m/s
MNCV improvement (STZ-diabetic Wistar rats [7]; 20 mg/kg p.os once a day): 89.8%
SNCV (STZ-diabetic Wistar rats [7]; 20 mg/kg p.os once a day): 60.1 ± 0.3 m/s
SNCV improvement (STZ-diabetic Wistar rats [7]; 20 mg/kg p.os once a day): 87.4%
effect on motor (MNCV) and sensor (SNCV) nerve conduction velocities (STZ-diabetic Wistar rats [7]; bimoclomol 20 mg/kg, Compound A 5 mg/kg once a day): significantly improved
effect of an increase in the dose over 10 mg/kg on NCV improvement (STZ-diabetic Wistar rats [7]; dose over 10 mg/kg): did not increase the effect
Score values Improvement % (STZ-diabetic Wistar rats [8]; 5 mg/kg daily, 1 month): 74.5%
Score values Mean ± SE (retinopathy histology) (STZ-diabetic Wistar rats [8]; 5 mg/kg daily, 1 month): 4.028 ± 0.961
comparison of the two compounds versus diabetic, non-treated animals (STZ-diabetic Wistar rats [8]; Compound A 5 mg/kg vs bimoclomol 20 mg/kg): statistically more effective
effect on diabetic retinopathy induced pathological histological alterations (STZ-diabetic Wistar rats [8]; Compound A 5 mg/kg, bimoclomol 20 mg/kg daily, 1 month): significantly improved
Scores lenticular + retinal improvement % (STZ-diabetic rats; 10 mg/kg daily): 34.7%
Scores lenticular + retinal mean ± SE (STZ-diabetic rats; 10 mg/kg daily): 4.55 ± 0.69
Scores retinal improvement % (STZ-diabetic rats; 10 mg/kg daily): 65.8%
Scores retinal mean ± SE (STZ-diabetic rats; 10 mg/kg daily): 1.80 ± 0.75
effect on lenticular and retinal pathologic histological alterations (STZ-diabetic rats): not significant
effect on retinal histological alterations only (STZ-diabetic rats): effective
